Experimental data from patent publication US12589143B2, “Human anti-PD-L1 peptide vaccines and methods of their use” (priority 2019, dated 2026).
Several values for one entry are separate records, joined by “and”; a condition that tells them apart may be missing. Equal entries are not always repeated. Where no end group is shown, it is not given here.

Tested on: MVF-PD-L1 peptide immunogen
Assay: Immunogenicity in Balb/c mice, experiment 1 (CT26 WT): ELISA of sera vs each MVF-PD-L1 peptide immunogen
Type: in vivo
Details: for Immunogenicity (titers) 1′ Conc. 1:: Balb/c mice
Method: Immunogenicity of MVF-PD-L1 B-cell epitopes. New Zealand White rabbits were immunized with 1 mg of each MVF-peptide immunogens dissolved in dd H2O emulsified (1:1) in Montanide ISA 720 vehicle (Seppic) with 333 μg of N-acetylglucosamine-3yl-acetyl-1-alanyl-d-isoglutamine (nor-MDP). Rabbits were boosted with the same doses at 3-week's intervals. Blood was collected via the central auricular artery in rabbits. Blood was collected weekly (1Y+3, 2Y+1, 2Y+2,2Y+3, 3Y+1, 3Y+2 and sera tested for antibody titers by ELISA using the immunogens MVF-PD-L1 peptides. Sera (terminal) from rabbit (3Y+3) immunized with MVF-PD-1 peptide immunogens were tested individually versus the immunogen by ELISA. 200 ng/well peptide were used in duplicates to coat the ELISA plates. Titers are defined as the highest dilution of sera with an absorbance value of 0.2 after subtracting the blank.
FIGS. 5A, 5B, 5C, and 5D show the experimental scheme to test the immunization with PD-L1 in Balb/c mice. […] Balb/c mice 6-8 weeks old, were immunized with MVF-peptide immunogens emulsified in ISA 720 with nor-MDP three times and three weeks apart. Mice were immunized with MVF-PD-L1 vaccine constructs [PD-L1(36-53), PD-L1(50-67), PD-L1(95-112), PD-L1(130-147)] prior to tumor challenge. Blood was collected weekly and sera tested for antibody titers by ELISA. Two weeks after the third immunization (3Y), the mice were engrafted with CT26 WT tumor cells 10^5 per mouse Control mice were treated twice weekly with PBS as negative control and twice weekly with anti-mPD-L1 mAb (10F.9G2) as positive control starting 2 days after tumor challenge. Tumor growths were observed twice weekly and measured by calipers.
Immunogenicity of MVF-PD-L1 peptides in BALB/c mice immunized with various peptide constructs. Sera collected weekly were tittered against each individual MVF-PD-L1 peptide immunogen. The Pink bar refers to titers versus PD-L1 130 and the red bar refers to titers versus PD-1 (92-110).
In order to verify the efficacy of the PD-L1 epitope vaccines in vivo in the CT26 carcinoma cell line, Balb/c mice (10 mice/group) were immunized with 100 μg each of MVF-PD-L1 (36-53), MVF-PD-L1 (50-67), MVF-PD-L1 (95-112) and MVF-PD-L1 (130-147) emulsified with nor-MDP and Montanide 720 (1:1 ratio) SCHEME 1A (FIG. 5A). As detailed in SCHEME 1A-D (FIGS. 5A, 5B, 5C, and 5D), mice were immunized 3 times at 3 weeks intervals. […] All PD-L1 epitopes elicited high titers of PD-L1 anti-peptide antibodies by ELISA. […] We also investigated the combination of PD-1(92-110) with PD-L1-130-147.
For each peptide, vaccine antibodies were raised in New Zealand white rabbits, purchased from Charles River Laboratories (Wilmington, MA, USA). Rabbits were immunized with 1 mg of MVF chimeric peptide emulsified in Montanide ISA 720 (Seppic, Paris, France) and boosted 3 times at three week intervals. For mouse experiments, mice, 6-8 weeks old, were immunized with 0.1 mg of peptide emulsified in ISA720 (1:1 ratio). Mice were boosted with the respective doses at 3-week intervals. Blood was then collected and sera were tested for antibody titers. Sera were collected weekly and peptide vaccine antibodies were purified by affinity chromatography using a protein A/G column and the concentration was measured using Spectrophometer. All experiments were performed in accordance with the U.S. Public Health Service Policy on Humane Care and Use of Laboratory animals and approved by the Ohio State University Institutional Animals Care and Use Committee, detailed in the accepted protocol.
6-8 weeks old BALB/c mice (Charles River, Wilmington, MA) were used as standard animal models. Mouse CT26 colon carcinoma cell line was purchased from American Type Culture Collection Cells and were regularly cultured in RPMI1640 medium containing 10% FBS. CT26/HER2 cells were kindly provided by M. Penichet. Vaccines were dissolved in sterile water and emulsified in Montanide ISA 720 (1:1). […]

## KLLSLIKGVIVHRLEGVEGPSLLIVYWEMEDKNIIQFVHG (KLLSLIKGVIVHRLEGVEGPSLLIVYWEMEDKNIIQFVHG-NH2) [PD-L1(36)]
Bleed 1Y + 3
  Immunogenicity (titers) 1′ Conc. 1:: 400
Bleed 2Y + 1
  Immunogenicity (titers) 1′ Conc. 1:: 1600
Bleed 2Y + 2
  Immunogenicity (titers) 1′ Conc. 1:: 6400
Bleed 2Y + 3
  Immunogenicity (titers) 1′ Conc. 1:: 16000
Bleed 3Y + 1
  Immunogenicity (titers) 1′ Conc. 1:: 16000
Bleed 3Y + 2
  Immunogenicity (titers) 1′ Conc. 1:: 16000
Bleed 3Y + 3
  Immunogenicity (titers) 1′ Conc. 1:: 16000
Bleed 1Y + 3 (1to100), dilution 100
  ELISA absorbance of sera: 0.598 and 0.583
Bleed 1Y + 3 (1to100), dilution 200
  ELISA absorbance of sera: 0.352 and 0.300
Bleed 1Y + 3 (1to100), dilution 400
  ELISA absorbance of sera: 0.212 and 0.200
Bleed 1Y + 3 (1to100), dilution 800
  ELISA absorbance of sera: 0.117 and 0.088
Bleed 1Y + 3 (1to100), dilution 1,600
  ELISA absorbance of sera: 0.063 and 0.046
Bleed 1Y + 3 (1to100), dilution 3,200
  ELISA absorbance of sera: 0.032 and 0.027
Bleed 1Y + 3 (1to100), dilution 6,400
  ELISA absorbance of sera: 0.014 and 0.010
Bleed 1Y + 3 (1to100), dilution 12,800
  ELISA absorbance of sera: 0.010 and 0.006
Bleed 2Y + 1 (1to100), dilution 100
  ELISA absorbance of sera: 1.031 and 0.901
Bleed 2Y + 1 (1to100), dilution 200
  ELISA absorbance of sera: 0.815 and 0.784
Bleed 2Y + 1 (1to100), dilution 400
  ELISA absorbance of sera: 0.601 and 0.591
Bleed 2Y + 1 (1to100), dilution 800
  ELISA absorbance of sera: 0.408 and 0.394
Bleed 2Y + 1 (1to100), dilution 1,600
  ELISA absorbance of sera: 0.273 and 0.203
Bleed 2Y + 1 (1to100), dilution 3,200
  ELISA absorbance of sera: 0.163 and 0.116
Bleed 2Y + 1 (1to100), dilution 6,400
  ELISA absorbance of sera: 0.090 and 0.067
Bleed 2Y + 1 (1to100), dilution 12,800
  ELISA absorbance of sera: 0.049 and 0.031
Bleed 2Y + 2 (1to100), dilution 100
  ELISA absorbance of sera: 1.281 and 1.251
Bleed 2Y + 2 (1to100), dilution 200
  ELISA absorbance of sera: 1.162 and 1.137
Bleed 2Y + 2 (1to100), dilution 400
  ELISA absorbance of sera: 1.033 and 1.019
Bleed 2Y + 2 (1to100), dilution 800
  ELISA absorbance of sera: 0.975 and 0.820
Bleed 2Y + 2 (1to100), dilution 1,600
  ELISA absorbance of sera: 0.691 and 0.602
Bleed 2Y + 2 (1to100), dilution 3,200
  ELISA absorbance of sera: 0.460 and 0.389
Bleed 2Y + 2 (1to100), dilution 6,400
  ELISA absorbance of sera: 0.299 and 0.248
Bleed 2Y + 3 (1to1k), dilution 100
  ELISA absorbance of sera: 0.855 and 0.817
Bleed 2Y + 3 (1to1k), dilution 200
  ELISA absorbance of sera: 0.695 and 0.612
Bleed 2Y + 3 (1to1k), dilution 400
  ELISA absorbance of sera: 0.530 and 0.500
Bleed 2Y + 3 (1to1k), dilution 800
  ELISA absorbance of sera: 0.393 and 0.359
Bleed 2Y + 3 (1to1k), dilution 1,600
  ELISA absorbance of sera: 0.273 and 0.257
Bleed 2Y + 3 (1to1k), dilution 3,200
  ELISA absorbance of sera: 0.155 and 0.146
Bleed 2Y + 3 (1to1k), dilution 6,400
  ELISA absorbance of sera: 0.074 and 0.049
Bleed 3Y + 1 (1to1k), dilution 100
  ELISA absorbance of sera: 0.966 and 0.923
Bleed 3Y + 1 (1to1k), dilution 200
  ELISA absorbance of sera: 0.785 and 0.691
Bleed 3Y + 1 (1to1k), dilution 400
  ELISA absorbance of sera: 0.599 and 0.565
Bleed 3Y + 1 (1to1k), dilution 800
  ELISA absorbance of sera: 0.444 and 0.406
Bleed 3Y + 1 (1to1k), dilution 1,600
  ELISA absorbance of sera: 0.308 and 0.291
Bleed 3Y + 1 (1to1k), dilution 3,200
  ELISA absorbance of sera: 0.175 and 0.165
Bleed 3Y + 1 (1to1k), dilution 6,400
  ELISA absorbance of sera: 0.084 and 0.056
Bleed 3Y + 2 (1to1k), dilution 100
  ELISA absorbance of sera: 1.202 and 1.225
Bleed 3Y + 2 (1to1k), dilution 200
  ELISA absorbance of sera: 0.934 and 0.949
Bleed 3Y + 2 (1to1k), dilution 400
  ELISA absorbance of sera: 0.658 and 0.662
Bleed 3Y + 2 (1to1k), dilution 800
  ELISA absorbance of sera: 0.405 and 0.424
Bleed 3Y + 2 (1to1k), dilution 1,600
  ELISA absorbance of sera: 0.240 and 0.228
Bleed 3Y + 2 (1to1k), dilution 3,200
  ELISA absorbance of sera: 0.151 and 0.130
Bleed 3Y + 2 (1to1k), dilution 6,400
  ELISA absorbance of sera: 0.077
Bleed 3Y + 3 (1to1k), dilution 100
  ELISA absorbance of sera: 1.269 and 1.387
Bleed 3Y + 3 (1to1k), dilution 200
  ELISA absorbance of sera: 0.919 and 1.048
Bleed 3Y + 3 (1to1k), dilution 400
  ELISA absorbance of sera: 0.666 and 0.772
Bleed 3Y + 3 (1to1k), dilution 800
  ELISA absorbance of sera: 0.418 and 0.430
Bleed 3Y + 3 (1to1k), dilution 1,600
  ELISA absorbance of sera: 0.246 and 0.257
Bleed 3Y + 3 (1to1k), dilution 3,200
  ELISA absorbance of sera: 0.081 and 0.119
Bleed 3Y + 3 (1to1k), dilution 6,400
  ELISA absorbance of sera: 0.025
